Patent publication US20260250630A1, “PROTEOMICS-BASED RECEPTOR-LIGAND MATCHING FOR OPTIMIZING STEM CELL REPROGRAMMING” (OKINAWA INSTITUTE OF SCIENCE AND TECHNOLOGY SCHOOL …, priority 2021, published 2026)
Entries after “also recorded” stand apart in the source; their conditions may differ.

Tests used:
[1] = test system: calyx of Held; test: Simultaneous pre- and postsynaptic action potential recordings, fidelity of neurotransmission; format: cell-based, rat; conditions: p<0.01, n=6
Description: (§1) Wistar rats (postnatal day 13-15) of either sex were killed by decapitation under isoflurane anesthesia. Transverse brainstem slices (175-200 μm in thickness) containing the medial nucleus of the trapezoid body (MNTB) were cut in ice-cold solution containing (in mM): 200 sucrose, 2.5 KCl, 26 NaHCO3, 1.25 NaH2PO4, 6 MgCl2, 10 glucose, 3 myo-inositol, 2 sodium pyruvate, and 0.5 sodium ascorbate (pH 7.4 when bubbled with 95% O2 and 5% CO2, 310-320 mOsm) by using vibroslicer (VT1200S, Leica). Before recording, slices were incubated for 1 h at 37° C. in standard aCSF solution containing (in mM): 125 NaCl, 2 KCl, 26 NaHCO3, 1.25 NaH2PO4, 2 CaCl2), 1 MgCl2, 10 glucose, 3 myo-inositol, 2 sodium pyruvate, and 0.5 sodium ascorbate (pH 7.4 when bubbled with 95% O2 and 5% CO2, 310-320 mOsm), and maintained thereafter at room temperature (24-26° C.). MNTB principal neurons and calyx of Held presynaptic terminals were visually identified using a ×40 water immersion objective attached to an upright microscope (BX51WI, Olympus).
For recording postsynaptic action potentials (APs), simultaneous pre- and postsynaptic whole-cell recordings were made from calyceal terminals and postsynaptic MNTB principal neurons, both in current-clamp mode, in the presence of bicuculline methiodide (10 µM) and strychnine hydrochloride (0.5 μM). […]

[2] = test system: calyx of Held presynaptic terminals; test: EPSC recording at the calyx of Held, short-term depression and recovery; format: cell-based, rat
Description: as §1
For recording of evoked EPSCs, simultaneous pre- and postsynaptic whole-cell recordings were made from a calyceal nerve terminal and postsynaptic cell. Throughout the experiments, presynaptic recordings were made in current-clamp mode, whereas postsynaptic recordings were made in voltage-clamp mode at a holding potential of −70 mV. Pipette solution for recording of presynaptic action potentials (APs) contained (mM): 110 K-gluconate, 10 L-glutamate, 30 KCl, 10 HEPES, 0.5 EGTA, 12 Na2-phosphocreatine, 3 MgATP, 1 MgCl2, 0.3 Na2GTP (315 mOsm, pH 7.3 adjusted with KOH), and that for postsynaptic recording contained (mM): 110 CsF, 30 CsCl, 10 HEPES, 5 EGTA, 1 MgCl2, 5 QX314-CI (300 mOsm, pH 7.3 adjusted with CsOH). EPSCs were evoked by current injection (0.5-1 nA, 1 ms) into the presynaptic terminal via a recording glass electrode, in the presence of bicuculline methiodide (10 µM) and strychnine hydrochloride (0.5 μM).

[3] = test system: calyx of Held presynaptic terminals; test: Membrane capacitance measurement of exo-endocytosis at the calyx of Held; format: cell-based, rat; conditions: LP-935509 1 or 10 µM in presynaptic terminals
Description: as §1
Membrane capacitance measurement from the calyx of Held presynaptic terminals, in whole-cell configurations, were made at room temperature (RT, 26-27° C.). Data were acquired at a sampling rate of 50 KHz, using an EPC-10 patch-clamp amplifier controlled by PatchMaster software (HEKA) after on-line filtering at 5 KHz. Calyx of Held terminals were voltage-clamped at a holding potential of −80 mV and a sinusoidal voltage command with a peak-to-peak voltage of 60 mV was applied at 1 KHz. Aak1 inhibitor LP935509 (Axon MedChem) was dissolved in DMSO (0.1%), which was also included in pipette solution, and infused from whole-cell pipettes into calyceal terminals by diffusion. […]
Single-pulse step depolarization to +10 mV for 20 ms was used to induce presynaptic QCa. […] The amplitude of exocytic Cm change (ΔCm) was measured as the difference of Cm values between the baseline and those at 450-500 ms after depolarization. […] The half decay time of endocytosis was measured from the midpoint of ΔCm decay.

[4] = test system: human ipsc-derived neurons (iN); test: Spontaneous synaptic currents in iPSC-derived neurons (iN); format: cell-based; conditions: addition of CNQX
Description: FIG. 14A-14E. The differentiated neurons (iN) in culture are making functional synapses. • A) DIC image of human ipsc-derived neurons (iN) in culture of DIV25.

[5] = from cumulative histograms of EPSC amplitudes

Row | SMILES | transmission fidelity (output/input AP ratio), level declined to ([1]; 1 μM in presynaptic terminals, 100-Hz stimulation, within 40 s) | fidelity of neurotransmission (ratio of postsynaptic APs to presynaptic APs) ([1]; 1 μM) | recovery from STD (time constants of Ca2+-dependent fast and Ca2+-independent slow components) ([2]; calyx of Held) | short-term depression (STD) of EPSCs ([2]; calyx of Held loaded with LP-935509, 100 Hz train, 0.3 s, compared to controls, p<0.05, n=7) | pool size of readily releasable SVs [2, 5] | release probability [2, 5] | exocytosis (exocytic capacitance change, ΔCm) [3] | presynaptic Ca2+ current charge (QCa) [3] | endocytic capacitance change ([3]; p<0.05, n=6) | spontaneous synaptic currents in iN [4]
1 | COc1ncccc1-c1cnn2ccc(N3CCN(C(=O)OC(C)C)CC3)nc12 [LP-935509] | ~ 50% | significantly impaired | significantly prolonged | stronger STD | reduced | without affecting | did not indicate a significant reduction; also recorded: remained unchanged | remained unchanged | significantly prolonged | –
2 | N#Cc1cc2[nH]c(=O)c(=O)[nH]c2cc1[N+](=O)[O-] [CNQX] | – | – | – | – | – | – | – | – | – | abolished
